The values that follow come from PubChem BioAssay (NCI).

Holding throughout (test): DTP human tumour cell line panel, 48 h
Assay [1] relates to CAKI-1 renal.
Assay [2] has as its system SF-295 CNS.
For assay [3], the system named is UACC-257 melanoma.
Assay [4] relates to OVCAR-8 ovarian.
Assay [5] concerns IGROV1 ovarian.
In assay [6] the test system is SK-OV-3 ovarian.
Assay [7] has as its system RXF 393 renal.
For assay [8], the system named is HCC-2998 colon.
In assay [9] the test system is MALME-3M melanoma.
Assay [10] relates to HS 578T breast.

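How tested: cells in 96-well plates exposed to compound for 48 hours at five concentrations. Here, GI50 denotes the concentration required for 50% inhibition of growth. TGI: total growth inhibition.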

With `CCCCC1CCCCCCc2[nH]c(/C=C3\N=C(c4ccc[nH]4)C=C3OC)cc21` (stereo not given), the TGI – broadly, the concentration giving total growth inhibition – in [1] was determined as 4.32 µM; in assay [2], 1.17 µM; in assay [3] it was 2.73 µM; in assay [4], 1.33 µM; in assay [5], 1.29 µM; in assay [6] it was 7.37 µM. The TGI in assay [7] was 1.11 µM; in assay [8], 1.02 µM; in assay [9], 0.689 µM; in assay [10], 1.62 µM.
As to `CC1(C)CCCC2(C)C3=C(CCC12)C(=O)OC3` (stereo not given), the TGI in assay [1], in assay [2], in assay [3], in assay [4], in [5] and in [6] was > 100 µM in each case. The TGI in assay [7], in [8], in assay [9] and in assay [10] was > 100 µM throughout.
As for `COc1ccc(C(=O)NNC(=O)c2nsc3ccccc23)cc1`, the TGI in [3], in assay [4], in assay [5], in assay [7] and in assay [8] was > 100 µM each time.
`CCc1cc(C)cc2[n+]1CC=C2C`: the TGI in assay [1], in assay [2], in [3], in [4], in [7] and in assay [8] was > 100 µM each time. In [9], the total growth inhibition concentration (TGI) is > 100 µM.
In the case of `COC(=O)C12OCC34C(CC5C(C)C6=CC(=O)OC6=CC5(C)C3C(O)C1O)OC(=O)C(OC(C)=O)C24` (stereo not given), the concentration for total growth inhibition (TGI) in assay [1] came to 25.2 µM; in assay [2] it was 65.7 µM; in [3], 30 µM; in assay [4] it was 34.1 µM; in [5], 65.1 µM; in assay [6] it was 79.4 µM. The concentration for total growth inhibition (TGI) in assay [7] turned out to be 29 µM; in assay [8] it was 30 µM; in assay [9], 21.9 µM.
As for `CCCCCCCCCCCCCCC(C(=O)[O-])[n+]1ccccc1` (stereo not given), the TGI in assay [1], in assay [2], in assay [3], in [4], in [5] and in assay [6] was > 100 µM throughout. For the same molecule, the values for the total growth inhibition concentration (TGI) in assay [7], in assay [8] and in [10] were 74.7 µM, > 100 µM and > 100 µM, respectively.
In the case of `NCc1ccc(O)c(O)c1O`, the concentration for total growth inhibition (TGI) in [1] was > 46.4 µM; in [2] it was > 57.7 µM; in [3] it was > 75.6 µM; in assay [4] it was 49.1 µM; in assay [5] it was > 86.3 µM; in assay [6], > 100 µM. Besides, the TGI in assay [7] is > 81.1 µM; in assay [8] it was > 81.7 µM; in [9], > 100 µM; in [10], 54.9 µM.
Turning to `Cc1nc2ccccc2c(=O)n1Nc1ccc(C(=O)O)cc1`, the TGI in assay [1], in assay [2], in [3], in assay [4], in assay [5] and in assay [6] was > 100 µM each time. For the same molecule, the total growth inhibition concentration (TGI) in assay [7], in assay [8] and in [9] was > 100 µM throughout.
On to `O=C(Nc1ccc(-n2ccc3c(NC(=O)c4ccccc4)ncnc32)cc1)Nc1ccc(Cl)c(C(F)(F)F)c1`, for which the GI50 (usually the concentration giving 50% growth inhibition) in assay [1] is 1.69 µM; in assay [2], 1.41 µM; in assay [3], 2.76 µM; in assay [5], 1.77 µM; in [7], 1.5 µM; in assay [8] it was 2.47 µM. Also, the values for the GI50 in [9] and in [10] were 1.94 µM and 1.27 µM, respectively. Also, the total growth inhibition concentration (TGI) amounted to 3.81 µM in assay [1]; 3.38 µM in assay [2]; 6.39 µM in assay [3]; 3.91 µM in assay [5]; 3.28 µM in [7]; 6.54 µM in assay [8]. Also, the TGI was 4.54 µM in assay [9] and 4.61 µM in assay [10].
For `O=C1CC(c2ccccc2)NCCCCN2CC(CN1)C(C(O)c1ccccc1)C2=O` (stereo not given), the TGI in assay [1], in [2], in [3], in assay [4], in [5] and in assay [6] was > 100 µM throughout. Further, the TGI in assay [7], in assay [8], in [9] and in [10] was > 100 µM each time.
Consider `Nc1ccc([As](=O)(O)O)cc1`, for which the total growth inhibition concentration (TGI) in [1], in [2], in assay [3], in [4], in assay [5] and in assay [6] was > 100 µM in each case. Further, the TGI in assay [7], in [8], in assay [9] and in [10] was > 100 µM throughout.
